# Measurements from patent publication US9422289B2, “Use of pteridine derivatives for the treatment of increased intracranial pressure, secondary ischemia, and disorders associated with an increased level of cytotoxic reactive oxygen species” (VASOPHARM GMBH, priority 2003, dated 2016).
# Legend:
# [1] = system: Cell proliferation (h) (EGF-stimulated A-431); assay: cells; type: cell-based, human; details: 10 µM
# [2] = system: Estrogen (ER); assay: Radioligand binding, Cerep 813; details: 10 µM
# [3] = target: D2 (h) (Homo sapiens, UniProt P14416); type: binding; details: 10 µM
# Chain of D2 (h) (P14416 whole entry): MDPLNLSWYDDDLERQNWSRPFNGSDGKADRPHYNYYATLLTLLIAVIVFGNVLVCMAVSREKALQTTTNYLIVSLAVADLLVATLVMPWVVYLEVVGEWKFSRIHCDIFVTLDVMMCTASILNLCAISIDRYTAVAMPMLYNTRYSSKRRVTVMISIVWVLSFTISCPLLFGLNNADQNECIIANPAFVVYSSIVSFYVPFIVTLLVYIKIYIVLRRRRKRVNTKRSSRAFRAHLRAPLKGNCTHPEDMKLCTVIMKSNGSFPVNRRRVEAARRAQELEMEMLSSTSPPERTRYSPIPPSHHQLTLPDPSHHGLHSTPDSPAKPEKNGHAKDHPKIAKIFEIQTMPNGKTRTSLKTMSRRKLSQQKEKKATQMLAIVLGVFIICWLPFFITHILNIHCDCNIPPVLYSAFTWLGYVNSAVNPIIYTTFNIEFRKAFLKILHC
# [4] = system: Ca^2+-ATPase (pump); assay: Cell biology assay, Cerep 735; type: cell-based; details: 10 µM
# [5] = target: T1, NOS constitutive (h) (endothelial) (Homo sapiens, UniProt P29474); type: biochemical; details: 10 µM
# T1 construct: Cerep (assay catalogue, edition 2002) 766-c
# [6] = target: T2, NOS inducible (whole cells/spectrophoto.) (Mus musculus, UniProt P29477); assay: Cell biology assay, Cerep 766-i1; type: cell-based; details: 10 µM
# T2 construct: Cerep (assay catalogue, edition 2002) 766-i1
# [7] = system: β-adrenoceptor - G protein coupling; type: cell-based
# [8] = system: GABAA; assay: Radioligand binding, Cerep 804-1; details: 10 µM
# [9] = target: H2 (Cavia porcellus, UniProt P47747); type: binding; details: 10 µM
# Chain of H2 (P47747 whole entry): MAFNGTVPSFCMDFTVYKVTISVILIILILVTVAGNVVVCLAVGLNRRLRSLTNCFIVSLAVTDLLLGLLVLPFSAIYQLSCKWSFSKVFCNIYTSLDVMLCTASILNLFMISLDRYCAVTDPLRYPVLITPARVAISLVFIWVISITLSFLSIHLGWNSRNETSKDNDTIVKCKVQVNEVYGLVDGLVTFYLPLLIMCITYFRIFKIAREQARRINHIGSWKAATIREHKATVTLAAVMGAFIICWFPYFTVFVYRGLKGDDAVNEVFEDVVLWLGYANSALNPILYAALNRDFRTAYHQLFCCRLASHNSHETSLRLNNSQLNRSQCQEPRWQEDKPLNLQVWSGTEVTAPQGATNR
# [10] = system: SK^+Ca channel; assay: Radioligand binding, Cerep 863-3; details: 10 µM
# [11] = system: Na^+ channel (h) (stimulated); assay: Cell biology assay, Cerep 739-1; type: cell-based, human; details: 10 µM
# [12] = target: T3, 5-HT2A (h) (Homo sapiens, UniProt P28223); assay: Radioligand binding, Cerep 808-2h; details: 10 µM
# T3 construct: Cerep (assay catalogue, edition 2002) 808-2h
# [13] = target: ETB (h) (Homo sapiens, UniProt P24530); assay: Radioligand binding, Cerep 825-2h; details: 10 µM
# [14] = target: M2 (h) (Homo sapiens, UniProt P08172); type: binding; details: 10 µM
# Chain of M2 (h) (P08172 whole entry): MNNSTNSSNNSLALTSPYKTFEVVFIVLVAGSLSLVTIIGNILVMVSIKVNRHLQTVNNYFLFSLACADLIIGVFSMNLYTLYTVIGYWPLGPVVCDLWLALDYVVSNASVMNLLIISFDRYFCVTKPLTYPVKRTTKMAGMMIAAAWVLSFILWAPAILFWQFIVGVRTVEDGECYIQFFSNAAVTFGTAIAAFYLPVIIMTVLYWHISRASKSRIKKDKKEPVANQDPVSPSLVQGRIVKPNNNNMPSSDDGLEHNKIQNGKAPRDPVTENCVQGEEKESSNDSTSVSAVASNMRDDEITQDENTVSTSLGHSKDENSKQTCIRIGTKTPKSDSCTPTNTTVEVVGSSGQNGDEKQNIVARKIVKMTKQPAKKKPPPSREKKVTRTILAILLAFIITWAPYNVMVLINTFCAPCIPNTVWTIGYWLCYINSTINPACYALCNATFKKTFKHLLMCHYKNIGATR
# [15] = target: EGF (h) (Homo sapiens, UniProt P00533); assay: Radioligand binding, Cerep […]; details: 10 µM
# Chain of EGF (h) (P00533 25-1210): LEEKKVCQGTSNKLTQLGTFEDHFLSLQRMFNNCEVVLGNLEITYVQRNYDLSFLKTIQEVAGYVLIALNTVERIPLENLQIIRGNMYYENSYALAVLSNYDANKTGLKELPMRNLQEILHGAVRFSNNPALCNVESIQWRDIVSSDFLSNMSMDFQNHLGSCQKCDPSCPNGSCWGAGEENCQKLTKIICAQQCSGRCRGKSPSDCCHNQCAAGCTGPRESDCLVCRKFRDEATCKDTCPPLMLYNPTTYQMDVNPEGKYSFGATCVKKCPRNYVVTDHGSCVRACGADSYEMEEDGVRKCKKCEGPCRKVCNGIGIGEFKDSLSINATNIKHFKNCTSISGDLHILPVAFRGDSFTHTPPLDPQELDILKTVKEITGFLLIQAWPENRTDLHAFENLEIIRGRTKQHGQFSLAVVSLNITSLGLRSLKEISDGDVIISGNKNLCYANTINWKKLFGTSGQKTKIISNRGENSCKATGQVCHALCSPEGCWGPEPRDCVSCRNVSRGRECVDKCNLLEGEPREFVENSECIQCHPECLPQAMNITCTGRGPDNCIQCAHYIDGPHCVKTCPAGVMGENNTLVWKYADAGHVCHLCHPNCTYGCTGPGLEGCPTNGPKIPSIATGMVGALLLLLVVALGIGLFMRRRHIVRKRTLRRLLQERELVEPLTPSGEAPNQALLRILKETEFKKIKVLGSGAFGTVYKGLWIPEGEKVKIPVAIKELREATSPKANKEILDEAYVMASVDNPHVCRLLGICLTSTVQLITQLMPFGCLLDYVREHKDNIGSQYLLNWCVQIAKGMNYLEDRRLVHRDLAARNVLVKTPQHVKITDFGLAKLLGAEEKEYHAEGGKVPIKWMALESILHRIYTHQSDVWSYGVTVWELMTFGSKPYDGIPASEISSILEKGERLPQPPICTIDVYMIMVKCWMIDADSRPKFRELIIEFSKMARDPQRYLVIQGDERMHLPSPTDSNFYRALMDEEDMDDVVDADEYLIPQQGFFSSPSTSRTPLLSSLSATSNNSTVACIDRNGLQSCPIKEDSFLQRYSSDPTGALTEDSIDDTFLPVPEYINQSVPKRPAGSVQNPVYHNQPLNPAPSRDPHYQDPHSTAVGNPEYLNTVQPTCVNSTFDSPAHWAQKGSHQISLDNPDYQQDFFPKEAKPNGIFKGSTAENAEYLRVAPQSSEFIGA
# [16] = system: Cell proliferation (PDGF-stimulated Balb/c 3T3); assay: Cell biology assay, Cerep 791-3; type: cell-based; details: 10 µM
# [17] = target: M3 (h) (Homo sapiens, UniProt P20309); assay: Radioligand binding, Cerep 806-3h; details: 10 µM
# [18] = target: K^+ATP channel (Rattus norvegicus, UniProt Q09429); assay: Radioligand binding, Cerep 863-1; details: 10 µM
# [19] = target: AT1 (h) (Homo sapiens, UniProt P30556); assay: Radioligand binding, Cerep 821-1h; details: 10 µM
# [20] = system: L-type Ca^2+ channel (stimulated); assay: Cell biology assay, Cerep 740-1; type: cell-based; details: 10 µM
# [21] = target: β2 (h) (Homo sapiens, UniProt P07550); type: binding; details: 10 µM
# [22] = target: 5-HT1B (Rattus norvegicus, UniProt P28564); type: binding; details: 10 µM
# [23] = system: NMDA; assay: Radioligand binding, Cerep 895-3; details: 10 µM
# [24] = system: K^+V channel; assay: Radioligand binding, Cerep 863-2; details: 10 µM
# [25] = target: D1 (h) (Homo sapiens, UniProt P21728); type: binding; details: 10 µM
# [26] = system: Na^+/K^+ ATPase (pump); assay: Cell biology assay, Cerep 734; type: cell-based; details: 10 µM
# [27] = system: β-adrenoceptor -G protein coupling; type: cell-based; details: 10 µM
# [28] = target: PAF (Oryctolagus cuniculus, UniProt G1TEI7); assay: Radioligand binding, Cerep 830; details: 10 µM
# [29] = system: Kainate; assay: Radioligand binding, Cerep 895-2; details: 10 µM
# [30] = target: T4, 5-HT2B (h) (Homo sapiens, UniProt P41595); type: binding; details: 10 µM
# T4 construct: Cerep (assay catalogue, edition 2002) 808-2bh
# [31] = system: AMPA; assay: Radioligand binding, Cerep 895-1; details: 10 µM
# [32] = system: IP3; assay: Radioligand binding, Cerep 861-5; details: 10 µM
# [33] = target: M1 (h) (Homo sapiens, UniProt P11229); type: binding; details: 10 µM
# Chain of M1 (h) (P11229 whole entry): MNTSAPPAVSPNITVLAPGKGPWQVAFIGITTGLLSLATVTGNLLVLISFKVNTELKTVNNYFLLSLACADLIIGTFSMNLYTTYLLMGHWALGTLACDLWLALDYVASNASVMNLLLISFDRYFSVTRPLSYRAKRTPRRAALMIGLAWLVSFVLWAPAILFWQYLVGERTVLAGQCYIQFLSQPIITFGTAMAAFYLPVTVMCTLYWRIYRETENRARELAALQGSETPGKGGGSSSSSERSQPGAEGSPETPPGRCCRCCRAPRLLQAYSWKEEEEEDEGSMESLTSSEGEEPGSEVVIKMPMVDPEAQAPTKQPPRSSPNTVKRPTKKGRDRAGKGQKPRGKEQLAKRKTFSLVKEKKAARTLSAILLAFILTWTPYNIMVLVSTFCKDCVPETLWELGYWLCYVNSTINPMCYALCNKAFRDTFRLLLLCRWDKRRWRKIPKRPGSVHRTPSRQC
# [34] = target: 5-HT uptake (Rattus norvegicus, UniProt P31652); type: cell-based; details: 10 µM
# [35] = system: isolated rat basilar arteries (BA); assay: Contractile action in isolated rat basilar arteries
# [36] = system: α1 (non-selective); assay: Radioligand binding, Cerep 802-1a; details: 10 µM
# [37] = target: T5, Vitamin D3 (h) (Homo sapiens, UniProt P11473); type: binding; details: 10 µM
# T5 construct: Cerep (assay catalogue, edition 2002) 848-h
# T5 sequence (P11473 whole entry): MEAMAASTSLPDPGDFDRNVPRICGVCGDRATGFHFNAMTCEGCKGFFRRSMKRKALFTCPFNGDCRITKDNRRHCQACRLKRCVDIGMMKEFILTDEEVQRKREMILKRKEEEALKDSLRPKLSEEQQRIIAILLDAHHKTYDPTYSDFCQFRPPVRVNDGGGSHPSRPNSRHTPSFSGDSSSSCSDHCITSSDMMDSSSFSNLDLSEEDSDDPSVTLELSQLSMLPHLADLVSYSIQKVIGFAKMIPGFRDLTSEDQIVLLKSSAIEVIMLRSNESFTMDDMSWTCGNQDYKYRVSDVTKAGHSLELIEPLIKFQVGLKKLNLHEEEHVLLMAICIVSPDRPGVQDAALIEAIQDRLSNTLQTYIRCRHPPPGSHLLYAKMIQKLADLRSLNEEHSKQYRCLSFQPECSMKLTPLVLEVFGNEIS
# [38] = system: PDGF; assay: Radioligand binding, Cerep 881; details: 10 µM
# [39] = target: β1 (h) (Homo sapiens, UniProt P08588); type: binding; details: 10 µM
# [40] = system: GABA (non-selective); type: binding; details: 10 µM
# [41] = target: Acetylcholinesterase (h) (Homo sapiens, UniProt P22303); type: biochemical; details: 10 µM
# [42] = system: Protein kinase A (stimulated); assay: Cell biology assay, Cerep 706-2; type: cell-based; details: 10 µM
# [43] = system: ATPase (Na^+/K^+); assay: Cell biology assay, Cerep 760; type: biochemical; details: 10 µM
# [44] = target: H1 (central) (Cavia porcellus, UniProt P31389); type: binding; details: 10 µM
# [45] = system: isolated rat middle cerebral arteries (MCA); assay: Contractile action in isolated rat middle cerebral arteries
# [46] = system: α2 (non-selective); assay: Radioligand binding, Cerep 802-1b; details: 10 µM
# [47] = target: ETA (h) (Homo sapiens, UniProt P25101); type: binding; details: 10 µM
# Chain of ETA (h) (P25101 21-427): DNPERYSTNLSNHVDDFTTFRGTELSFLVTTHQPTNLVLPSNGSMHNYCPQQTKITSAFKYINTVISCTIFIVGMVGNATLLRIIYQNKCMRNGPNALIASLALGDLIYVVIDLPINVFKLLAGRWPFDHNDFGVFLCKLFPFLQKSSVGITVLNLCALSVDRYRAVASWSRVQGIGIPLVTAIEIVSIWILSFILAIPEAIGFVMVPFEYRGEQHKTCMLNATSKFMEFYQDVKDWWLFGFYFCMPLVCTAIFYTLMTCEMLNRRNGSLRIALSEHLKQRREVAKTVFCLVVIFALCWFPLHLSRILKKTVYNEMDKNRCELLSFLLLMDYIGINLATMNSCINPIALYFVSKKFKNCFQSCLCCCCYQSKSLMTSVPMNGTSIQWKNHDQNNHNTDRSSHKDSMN
# [48] = system: 5-HT1D; assay: Radioligand binding, Cerep 808-1d; details: 10 µM
# [49] = target: Phosphodiesterase III (h) (Homo sapiens, UniProt Q14432); assay: Cell biology assay, Cerep 752-ch; type: biochemical; details: 10 µM
# [50] = target: T6, Phosphodiesterase V (h) (Homo sapiens, UniProt O76074); type: biochemical; details: 10 µM
# T6 construct: Cerep (assay catalogue, edition 2002) 752-e
# [51] = target: AT2 (h) (Homo sapiens, UniProt P50052); type: binding; details: 10 µM
# Chain of AT2 (h) (P50052 whole entry): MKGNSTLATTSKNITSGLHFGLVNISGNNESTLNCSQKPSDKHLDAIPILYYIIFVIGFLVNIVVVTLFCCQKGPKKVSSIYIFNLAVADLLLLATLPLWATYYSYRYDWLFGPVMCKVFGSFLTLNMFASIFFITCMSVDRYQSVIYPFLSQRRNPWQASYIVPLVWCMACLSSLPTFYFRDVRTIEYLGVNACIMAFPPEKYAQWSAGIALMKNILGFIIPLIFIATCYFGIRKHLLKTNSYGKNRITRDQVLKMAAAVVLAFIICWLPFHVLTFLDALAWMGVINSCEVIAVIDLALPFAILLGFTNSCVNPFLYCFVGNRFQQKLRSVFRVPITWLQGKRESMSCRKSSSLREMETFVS
# [52] = system: Ca^2+ channel (L, DHP site); type: binding; details: 10 µM
# [53] = target: NE uptake (Rattus norvegicus, UniProt Q63380); type: cell-based; details: 10 µM
# Chain of NE uptake (Q63380 entry or part of it): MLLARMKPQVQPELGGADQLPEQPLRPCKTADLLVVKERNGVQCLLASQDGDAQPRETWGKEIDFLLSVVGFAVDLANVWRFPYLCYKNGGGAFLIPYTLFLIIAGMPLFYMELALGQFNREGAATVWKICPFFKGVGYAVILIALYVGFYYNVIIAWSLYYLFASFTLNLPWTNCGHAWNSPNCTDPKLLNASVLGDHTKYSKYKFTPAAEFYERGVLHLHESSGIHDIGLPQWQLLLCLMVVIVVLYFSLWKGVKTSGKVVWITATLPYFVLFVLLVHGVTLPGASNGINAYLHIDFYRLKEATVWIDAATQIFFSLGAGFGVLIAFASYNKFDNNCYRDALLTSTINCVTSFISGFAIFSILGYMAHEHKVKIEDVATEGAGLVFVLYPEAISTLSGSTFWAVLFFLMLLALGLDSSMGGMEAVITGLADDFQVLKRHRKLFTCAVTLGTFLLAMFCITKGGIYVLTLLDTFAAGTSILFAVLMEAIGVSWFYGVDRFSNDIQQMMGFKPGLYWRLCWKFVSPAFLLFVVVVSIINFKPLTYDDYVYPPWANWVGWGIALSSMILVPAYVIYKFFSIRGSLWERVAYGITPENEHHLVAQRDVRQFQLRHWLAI
# [54] = system: Ca^2+ channel (L, verapamil site); assay: Radioligand binding, Cerep 861-L3; details: 10 µM
# [55] = system: Ca^2+ channel (L, diltiazem site); type: binding; details: 10 µM
# [56] = target: GABAB (Rattus norvegicus, UniProt Q9Z0U4); type: binding; details: 10 µM
# [57] = target: DA uptake (Rattus norvegicus, UniProt P23977); type: cell-based; details: 10 µM
smiles,measurement,setting,value
"CC(O)C(O)C1CNc2nc(N)nc(N)c2N1 [H4-aminobiopterin, 2,4-diamino-5,6,7,8-tetrahydro-6-(L-erythro-1,2-dihydroxypropyl)-pteridine]",percent inhibition of control activity,[1],23%
same,percent inhibition of control specific binding,[2],— (key: The symbol — indicates an inhibition of less than 10%.)
same,percent inhibition of control specific binding,[3],— (key: The symbol — indicates an inhibition of less than 10%.)
same,percent inhibition of control activity,[4],— (key: The symbol — indicates an inhibition of less than 10%.)
same,percent inhibition of control activity,[5],76%
same,percent inhibition of control activity,[6],— (key: The symbol — indicates an inhibition of less than 10%.)
same,stimulation of control activity,[7],11
same,percent inhibition of control specific binding,[8],— (key: The symbol — indicates an inhibition of less than 10%.)
same,percent inhibition of control specific binding,[9],— (key: The symbol — indicates an inhibition of less than 10%.)
same,percent inhibition of control specific binding,[10],— (key: The symbol — indicates an inhibition of less than 10%.)
same,percent inhibition of control activity,[11],12%
same,percent inhibition of control specific binding,[12],— (key: The symbol — indicates an inhibition of less than 10%.)
same,percent inhibition of control specific binding,[13],— (key: The symbol — indicates an inhibition of less than 10%.)
same,percent inhibition of control specific binding,[14],— (key: The symbol — indicates an inhibition of less than 10%.)
same,percent inhibition of control specific binding,[15],10%
same,percent inhibition of control activity,[16],— (key: The symbol — indicates an inhibition of less than 10%.)
same,percent inhibition of control specific binding,[17],10%
same,percent inhibition of control specific binding,[18],— (key: The symbol — indicates an inhibition of less than 10%.)
same,percent inhibition of control specific binding,[19],— (key: The symbol — indicates an inhibition of less than 10%.)
same,percent inhibition of control activity,[20],— (key: The symbol — indicates an inhibition of less than 10%.)
same,percent inhibition of control specific binding,[21],— (key: The symbol — indicates an inhibition of less than 10%.)
same,percent inhibition of control specific binding,[22],— (key: The symbol — indicates an inhibition of less than 10%.)
same,percent inhibition of control specific binding,[23],— (key: The symbol — indicates an inhibition of less than 10%.)
same,percent inhibition of control specific binding,[24],— (key: The symbol — indicates an inhibition of less than 10%.)
same,percent inhibition of control specific binding,[25],— (key: The symbol — indicates an inhibition of less than 10%.)
same,percent inhibition of control activity,[26],— (key: The symbol — indicates an inhibition of less than 10%.)
same,percent of inhibition of control activity,[27],31%
same,percent inhibition of control specific binding,[28],— (key: The symbol — indicates an inhibition of less than 10%.)
same,percent inhibition of control specific binding,[29],— (key: The symbol — indicates an inhibition of less than 10%.)
same,percent inhibition of control specific binding,[30],— (key: The symbol — indicates an inhibition of less than 10%.)
same,percent inhibition of control specific binding,[31],— (key: The symbol — indicates an inhibition of less than 10%.)
same,percent inhibition of control specific binding,[32],— (key: The symbol — indicates an inhibition of less than 10%.)
same,percent inhibition of control specific binding,[33],— (key: The symbol — indicates an inhibition of less than 10%.)
same,percent inhibition of control activity,[34],— (key: The symbol — indicates an inhibition of less than 10%.)
same,contraction relative to contraction caused by 124 mM K^+-Krebs solution,[35],clear concentration dependent contraction
same,percent inhibition of control specific binding,[36],— (key: The symbol — indicates an inhibition of less than 10%.)
same,percent inhibition of control specific binding,[37],— (key: The symbol — indicates an inhibition of less than 10%.)
same,percent inhibition of control specific binding,[38],— (key: The symbol — indicates an inhibition of less than 10%.)
same,percent inhibition of control specific binding,[39],— (key: The symbol — indicates an inhibition of less than 10%.)
same,percent inhibition of control specific binding,[40],— (key: The symbol — indicates an inhibition of less than 10%.)
same,percent inhibition of control activity,[41],— (key: The symbol — indicates an inhibition of less than 10%.)
same,percent inhibition of control activity,[42],— (key: The symbol — indicates an inhibition of less than 10%.)
same,percent inhibition of control activity,[43],— (key: The symbol — indicates an inhibition of less than 10%.)
same,percent inhibition of control specific binding,[44],— (key: The symbol — indicates an inhibition of less than 10%.)
same,contraction relative to contraction caused by 124 mM K^+-Krebs solution,[45],clear concentration dependent contraction
same,percent inhibition of control specific binding,[46],— (key: The symbol — indicates an inhibition of less than 10%.)
same,percent inhibition of control specific binding,[47],— (key: The symbol — indicates an inhibition of less than 10%.)
same,percent inhibition of control specific binding,[48],— (key: The symbol — indicates an inhibition of less than 10%.)
same,percent inhibition of control activity,[49],— (key: The symbol — indicates an inhibition of less than 10%.)
same,percent inhibition of control activity,[50],— (key: The symbol — indicates an inhibition of less than 10%.)
same,percent inhibition of control specific binding,[51],16%
same,percent inhibition of control specific binding,[52],— (key: The symbol — indicates an inhibition of less than 10%.)
same,percent inhibition of control activity,[53],— (key: The symbol — indicates an inhibition of less than 10%.)
same,percent inhibition of control specific binding,[54],— (key: The symbol — indicates an inhibition of less than 10%.)
same,percent inhibition of control specific binding,[55],— (key: The symbol — indicates an inhibition of less than 10%.)
same,percent inhibition of control specific binding,[56],— (key: The symbol — indicates an inhibition of less than 10%.)
same,percent inhibition of control activity,[57],— (key: The symbol — indicates an inhibition of less than 10%.)
